# From patent publication US20220133740A1, “VALPROIC ACID COMPOUNDS AND WNT AGONISTS FOR TREATING EAR DISORDERS” (Frequency Therapeutics, Inc., priority 2019, published 2022)
# Entries after “also recorded” stand apart in the source; their conditions may differ. Read-outs that look alike come from different tables or passages of the source.
# Columns and labels:
# Lgr5+ cells = assay: Lgr5+ Assay; assay type: cell-based; conditions: Table 5
# GSK3-alpha [1] = molecular target: T1, GSK3-alpha (Homo sapiens, UniProt P49840); conditions: cited from earlier work; for GSK-3 alpha: Table 5
# GSK3-alpha [2] = molecular target: T1, GSK3-alpha; assay: GSK3-alpha inhibitor potency (Tables 2 and 5); assay type: biochemical
# GSK3-beta = GSK3-beta (Homo sapiens, UniProt P49841); conditions: cited from earlier work
# [3] = Blood/plasma valproic acid levels after intravenous sodium valproate; assay type: in vivo; conditions: guinea pig, i.v. 100 mg/mL sodium valproate at 20 μL/min for 60 minutes (120 mg, about 330 mg/kg); FIG. 2A
# [4] = Perilymph valproic acid along the cochlea (sequential apical sampling) after systemic sodium valproate; assay type: in vivo; conditions: guinea pig, perilymph at 3 hours, therapeutic level as determined in vitro on primary cochlear Lgr5 cells
# [5] = Perilymph valproic acid after systemic plus local administration versus local-only administration; assay type: in vivo; conditions: guinea pig, i.v. 25 mg/mL sodium valproate plus 20 μL poloxamer formulation (sodium valproate 88.63 mg/mL, CHIR99021 3.14 mg/mL) at round window niche, perilymph at 3 hours; FIG. 4
# T1 sequence (P49840 whole entry): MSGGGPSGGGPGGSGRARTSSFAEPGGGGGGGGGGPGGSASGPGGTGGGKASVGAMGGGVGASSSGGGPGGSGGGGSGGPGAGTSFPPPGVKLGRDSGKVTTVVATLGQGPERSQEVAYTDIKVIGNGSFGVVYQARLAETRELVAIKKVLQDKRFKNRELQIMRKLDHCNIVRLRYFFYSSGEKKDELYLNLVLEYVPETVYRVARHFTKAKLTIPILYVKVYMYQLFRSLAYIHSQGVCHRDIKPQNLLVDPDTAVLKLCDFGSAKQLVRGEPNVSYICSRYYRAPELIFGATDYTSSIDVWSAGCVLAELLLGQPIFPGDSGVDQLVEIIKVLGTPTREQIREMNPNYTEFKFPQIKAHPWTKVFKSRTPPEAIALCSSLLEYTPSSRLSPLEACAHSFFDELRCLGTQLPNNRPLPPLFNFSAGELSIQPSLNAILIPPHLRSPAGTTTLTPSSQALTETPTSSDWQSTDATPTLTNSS
# Sequence of GSK3-beta (P49841 whole entry): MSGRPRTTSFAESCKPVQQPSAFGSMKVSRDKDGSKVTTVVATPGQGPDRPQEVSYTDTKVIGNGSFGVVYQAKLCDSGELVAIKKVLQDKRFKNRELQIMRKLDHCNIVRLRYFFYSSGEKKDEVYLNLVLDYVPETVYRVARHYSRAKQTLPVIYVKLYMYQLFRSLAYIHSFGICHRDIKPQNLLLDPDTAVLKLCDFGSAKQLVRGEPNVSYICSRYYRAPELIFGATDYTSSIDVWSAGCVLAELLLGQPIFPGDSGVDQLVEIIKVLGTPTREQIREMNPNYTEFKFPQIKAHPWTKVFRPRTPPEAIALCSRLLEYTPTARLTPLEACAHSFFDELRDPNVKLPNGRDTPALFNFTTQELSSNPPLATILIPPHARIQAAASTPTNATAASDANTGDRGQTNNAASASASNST
Molecule,Potency (nM) GSK3-alpha (GSK3-alpha [1]; Table 2) [nM],Potency (nM) GSK3-beta (GSK3-beta; Table 2) [nM],other results
"N#Cc1ccc2c(c1)/C(=C1\C=CC(CN3CCOCC3)=CN1)C(=O)N2 [AZD1080, (Z)-3-(5-(morpholinomethyl)pyridin-2(1H)-ylidene)-2-oxoindoline-5-carbonitrile]",6.9,,Lgr5 + Assay (Lgr5+ cells): 1 to 5 µM; GSK-3 alpha (GSK3-alpha [1]): 6.9 nM
"COc1ccccc1[C@@H]1C2=C(CC(C)(C)CC2=O)N=C2NNC(C(F)(F)F)=C21 [BRD1172, (R)-4-(2-methoxyphenyl)-7,7-dimethyl-3-(trifluoromethyl)-1,2,4,6,7,8-hexahydro-5H-pyrazolo[3,4-b]quinolin-5-one]",,,Ratio of alpha to beta (GSK3-alpha [2]): 3.3; Potency (nM) GSK3-alpha (GSK3-alpha [1]): 3 nM; Potency (nM) GSK3-beta (GSK3-beta): 10 nM
"CC1(C)CC(=O)C2=C(C1)Nc1n[nH]c(C(F)(F)F)c1[C@]2(C)c1ccccc1 [BRD1652, N-4,7,7-trimethyl-4-phenyl-3-(trifluoromethyl)-2,4,6,7,8,9-hexahydro-5H-pyrazolo[3,4-b]quinolin-5-one]",0.4,4,
"Cc1cnc(-c2cnc(NCCNc3ccc(C#N)cn3)nc2-c2ccc(Cl)cc2Cl)[nH]1 [CHIR99021, 6-[[2-[[4-(2,4-dichlorophenyl)-5-(5-methyl-1H-imidazol-2-yl)-2-pyrimidinyl]amino]ethyl]amino]-3-pyridinecarbonitrile]",,,Lgr5 + Assay (Lgr5+ cells): 2 to 6 µM
"Cn1cc(C2=C(c3cccc(N)c3)C(=O)NC2=O)c2ccccc21 [Compound 3, 3-(3-aminophenyl)-4-(1-methyl-1H-indol-3-yl)-1H-pyrrole-2,5-dione]",3,10,
"CO[C@H]1CC[C@H](NC(=O)c2n[nH]cc2NC(=O)C2CCC(F)(F)CC2)CC1 [Compound 4a, 4-(4,4-difluorocyclohexane-1-carboxamido)-N-((1r,4r)-4-metboxycyclohexyl)-1H-pyrazole-3-carboxamide]",,8,
"CO[C@H]1CC[C@H](NC(=O)c2n[nH]cc2NC(=O)c2ccc(N3CCN(C)CC3)cc2)CC1 [Compound 4t, N-((1r,4r)-4-methoxycyclohexyl)-4-(4-(4-methylpiperazin-1-yl)benzamido)-1H-pyrazole-3-carboxamide]",,<5,
"CO[C@H]1CC[C@H](NC(=O)c2n[nH]cc2NC(=O)c2ncoc2-c2ccccc2)CC1 [Compound 4z, N-(3-(((1r,4r)-4-methoxycyclohexyl)carbamoyl)-1H-pyrazol-4-yl)-5-phenyloxazole-4-carboxamide]",,5,
"Cc1[nH]nc2c1C(c1cccc(F)c1)C1=C(CC(C)(C)CC1=O)N2 (stereo not drawn) [Compound 9, 4-(3-fluorophenyl)-3,7,7-trimethyl-2,4,6,7,8,9-hexahydro-5H-pyrazolo[3,4-b]quinolin-5-one]",62,156,
"Cc1ccccc1C1C2=C(CC(C)(C)CC2=O)Nc2n[nH]c(C)c21 (stereo not drawn) [Compound 11, 3,7,7-trimethyl-4-(o-tolyl)-2,4,6,7,8,9-hexahydro-5H-pyrazolo[3,4-b]quinolin-5-one]",32,102,
"Cc1[nH]nc2c1[C@](C)(c1ccccc1)C1=C(CC(C)(C)CC1=O)N2 [Compound 16, (S)-3,4,7,7-tetramethyl-4-phenyl-2,4,6,7,8,9-hexahydro-5H-pyrazolo[3,4-b]quinolin-5-one]",8,26,
"COc1ccc(-c2cnc3[nH]cc(/C=C/C(=O)NCc4ccncc4)cc2-3)cc1 [Compound 27, (E)-3-(3-(4-methoxyphenyl)-7H-pyrrolo[2,3-b]pyridin-5-yl)-N-(pyridin-4-ylmethyl)acrylamide]",42,140,
"c1ccc(Nc2ncc3nnn(-c4ccccc4)c3n2)cc1 [Compound 90, N,3-diphenyl-3H-[1,2,3]triazolo[4,5-d]pyrimidin-5-amine]",330,628,
"O=C(O)COc1ccc(Nc2ncc3nnn(-c4ccccc4)c3n2)cc1 [Compound 92, 2-(4-((3-phenyl-3H-[1,2,3]triazolo[4,5-d]pyrimidin-5-yl)amino)phenoxy)acetic acid]",9,13,
"Cc1ccc(C(=O)Nc2c[nH]nc2C(=O)NCCCOC(C)C)cn1 [GSK-3 Inhibitor XXII, 6-methyl-N-[3-[[3-(1-methylethoxy)propyl]carbamoyl]-1H-pyrazol-4-yl]pyridine-3-carboxamide]",2.3,,Lgr5 + Assay (Lgr5+ cells): 0.2 to 1 µM; GSK-3 alpha (GSK3-alpha [1]): 2.3 nM
"O=C1NC(=O)C(c2cnc3ccccn23)=C1c1cn2c3c(cc(F)cc13)CN(C(=O)N1CCCCC1)CC2 [LY2090314, 3-(9-fluoro-2-(piperidine-1-carbonyl)-1,2,3,4-tetrahydro-[1,4]diazepino[6,7,1-hi]indol-7-yl)-4-(imidazo[1,2-a]pyridin-3-yl)-1H-pyrrole-2,5-dione]",,,Lgr5 + Assay (Lgr5+ cells): 0.005 to 0.02 µM; GSK-3 alpha (GSK3-alpha [1]): 2.1 nM; GSK3-beta potency (GSK3-beta; Table 5): 0.9 nM
"CCCC(CCC)C(=O)[O-].[Na+] [Sodium Valproate, sodium 2-propylpentanoate]",,,"time at which plasma levels peaked [3]: ≤ 1 h; distribution and level of valproate in cochlear perilymph ([4]; i.v. 25 mg/mL sodium valproate at 20 μL/min for 60 min (about 26 mg valproate)): did not achieve therapeutic levels; distribution and level of valproate in cochlear perilymph (apex to base, serial samples 1-4) ([4]; i.v. 100 mg/mL sodium valproate at 20 μL/min for 60 min): Uniform distribution of valproate was observed throughout the cochlea at 3 hours; also recorded: uniform distribution and therapeutic levels"
"O=C1NC(=O)[C@@H](c2cn3c4c(cccc24)CCC3)[C@@H]1c1c[nH]c2ccccc12 [Tivantinib, (3R,4R)-3-(5,6-dihydro-4H-pyrrolo[3,2,1-ij]quinolin-1-yl)-4-(1H-indol-3-yl)pyrrolidine-2,5-dione]",659,1865,
"CCCC(CCC)C(=O)O [Valproic Acid, 2-propyl pentanoic acid]",,,"perilymph valproic acid distribution and retention, systemic plus local versus local-only administration [5]: improved the drug distribution and retention in guinea pig cochlea"
"(3-aminopyrido[2,3-a]pyrrolo[3,4-c]carbazole-5,7(1H,6H)-dionato-κN^1,κN^12)carbonylchloro(2-pyridinemethanamine-κN^1,κN^2)-, (OC-6-24-A)-Ruthenium [lambda-OS1]",0.9,6,
"carbonyl(η^5-2,4-cyclopentadien-1-yl)(9-hydroxypyrido[2,3-a]pyrrolo[3,4-c]carbazole-5,7(1H,6H)-dionato-κN^1,κN^12)-Ruthenium [(R)-DW12]",0.5,1,
